From patent US8946266B2, “Substituted triazole and imidazole derivatives as gamma secretase modulators” (Janssen Pharmaceuticals, Inc., priority 2009, dated 2015) come the findings set out here.

pIC50: −log10 of the molar value. Where two headings read alike, the source gives them in different places. A value given as a limit tells only on which side of the number the result lay.

Test [1] has as its system Aβ42. Description: γ-secretase-modulating activity, Method 2: Aβ42 Alphalisa in supernatant of SKNBE2 cells carrying APP 695-wild type (Table 3b). The test is classed as cell-based. Conditions: overnight. How it is done: (§1) Screening was carried out using SKNBE2 cells carrying the APP 695-wild type, grown in Dulbecco's Modified Eagle's Medium/Nutrient mixture F-12 (DMEM/NUT-mix F-12) (HAM) provided by Invitrogen (cat no. 10371-029) containing 5% Serum/Fe supplemented with 1% non-essential amino acids, 1-glutamine 2 mM, Hepes 15 mM, penicillin 50 U/ml (units/ml) en streptomycin 50 μg/ml. Cells were grown to near confluency.
(§2) The screening was performed using a modification of the assay as described in Citron et al (1997) Nature Medicine 3: 67. Briefly, cells were plated in a 384-well plate at 10^4 cells/well in Ultraculture (Lonza, BE12-725F) supplemented with 1% glutamine (Invitrogen, 25030-024), 1% non-essential amino acid (NEAA), penicillin 50 U/ml en streptomycin 50 μg/ml in the presence of test compound at different test concentrations. The cell/compound mixture was incubated overnight at 37° C., 5% CO2. The next day the media were assayed by two sandwich immuno-assays, for Aβ42 and Aβtotal.
(§3) Aβtotal and Aβ42 concentrations were quantified in the cell supernatant using the Aphalisa technology (Perkin Elmer). Alphalisa is a sandwich assay using biotinylated antibody attached to streptavidin coated donorbeads and antibody conjugated to acceptor beads. In the presence of antigen, the beads come into close proximity. The excitation of the donor beads provokes the release of singlet oxygen molecules that trigger a cascade of energy transfer in the acceptor beads, resulting in light emission. To quantify the amount of Aβ42 in the cell supernatant, monoclonal antibody specific to the C-terminus of Aβ42 (JRF/cAβ42/26) was coupled to the receptor beads and biotinylated antibody specific to the N-terminus of Aβ (JRF/AβN/25) was used to react with the donor beads. To quantify the amount of Aβ total in the cell supernatant, monoclonal antibody specific to the N-terminus of Aβ (JRF/AβN/25) was coupled to the receptor beads and biotinylated antibody specific to the mid region of Aβ (biotinylated 4G8) was used to react with the donor beads.
To obtain the values reported in Table 3b, the data were calculated as percentage of the maximum amount of amyloid Beta 42 measured in the absence of the test compound.
(§4) The sigmoidal dose response curves were analyzed using non-linear regression analysis with percentage of the control plotted against the log concentration of the compound. A 4-parameter equation was used to determine the IC50.
(§5) The IC50 values are shown in Table 3b (Aβtot means Aβtotal).

Test [2] has as its system Aβtotal. The experiment in a line: γ-secretase-modulating activity, Method 2: Aβtotal Alphalisa in supernatant of SKNBE2 cells carrying APP 695-wild type (Table 3b). The test is classed as cell-based. Conditions: overnight, read-out: IC50 Aβtot. How it is done: as §1, §2, §3, §4, §5

What is called pIC50 is the negative decadic logarithm of the IC50, by convention in mol/L. Take `COc1cc(-c2nc(N(C)c3ccc(F)cc3C(F)(F)F)n(C)n2)ccc1-n1cnc(C)c1` [Compound 50]: the pIC50 is 6.96 in test [1] and under 5.00 in test [2].

With `COc1cc(-c2nc(N[C@@H](C)c3ccc(F)cc3)n(C)n2)ccc1-n1cnc(C)c1` [Compound 51], the values for the negative-log IC50 (pIC50) in test [1] and in test [2] were 6.49 and under 5.00, respectively.

As to `COc1cc(-c2nc(-c3ccc(F)cc3)nn2C)ccc1-n1cnc(C)c1` [Compound 52], the pIC50 in test [1] is 5.24; in test [2] it was under 5.00.

For the molecule `COc1cc(-c2nc(N(C)c3ccc(F)cc3C(F)(F)F)nn2C)ccc1-n1cnc(C)c1` [Compound 53], the pIC50 in test [1] and in test [2] was under 5.00 throughout.

Take `COc1cc(-c2nc(-c3ccccc3C(F)(F)F)nn2C)ccc1-n1cnc(C)c1` [Compound 54]: the pIC50 in test [1] is 5.38; in test [2], under 5.00.

Turning to `COc1cccc(-c2n[nH]c(-c3ccc(-n4cnc(C)c4)c(OC)c3)n2)c1` [Compound 55], the results for the pIC50 in test [1] and in test [2] were 6.63 and under 5.00, respectively.

As to `COc1cccc(-c2nc(-c3ccc(-n4cnc(C)c4)c(OC)c3)n(C)n2)c1` [Compound 56], the negative-log IC50 (pIC50) in test [1] and in test [2] was under 5.00 throughout.

On to `COc1cc(-c2nc(Cc3ccc(F)cc3C(F)(F)F)nn2C)ccc1-n1cnc(C)c1` [Compound 57], for which the results for the pIC50 in test [1] and in test [2] were 6.07 and under 5.00, respectively.

Turning to `COc1cc(-c2nc(-c3ccc(-n4cnc(C)c4)c(OC)c3)n(C)n2)ccc1Cl` [Compound 58], the pIC50 in test [1] and in test [2] was under 5.00 in each case.

On to `COc1cc(-c2nc(/C=C/c3ccc(F)cc3)nn2C)ccc1-n1cnc(C)c1` [Compound 59], for which the values for the pIC50 in test [1] and in test [2] were 5.53 and under 5.00, respectively.

As for `COc1cc(-c2nc(C3(c4ccc(F)cc4)CC3)nn2C)ccc1-n1cnc(C)c1` [Compound 60], the pIC50 in test [1] was 5.07; in test [2] it was under 5.00.

For the molecule `COc1cc(-c2nc(Nc3cc(F)c(F)c(F)c3)nn2C)ccc1-n1cnc(C)c1` [Compound 61], the values for the pIC50 in test [1] and in test [2] were 5.32 and under 5.00, respectively.

For the molecule `COc1cc(-c2nc(N[C@@H](C)c3ccc(F)cc3)nn2C)ccc1-n1cnc(C)c1` [Compound 62], the negative-log IC50 (pIC50) in test [1] is 5.49; in test [2], under 5.00.

Regarding `COc1cc(-c2ncn(-c3ccccc3C(F)(F)F)n2)ccc1-n1cnc(C)c1` [Compound 63], the pIC50 is 5.87 in test [1] and under 5.00 in test [2].

In the case of `COc1cc(-c2nc(N3C[C@@H](C)O[C@@H](C)C3)nn2C)ccc1-n1cnc(C)c1` [Compound 64], the pIC50 in test [1] and in test [2] was under 5.00 each time.

As to `COc1cc(-c2ncn(-c3cccc(C(F)(F)F)c3)n2)ccc1-n1cnc(C)c1` [Compound 65], the pIC50 in test [1] is 5.65; in test [2], under 5.00.

As to `COc1cc(-c2nc(-c3ccccc3C(F)(F)F)n(C(C)C)n2)ccc1-n1cnc(C)c1` [Compound 67], the pIC50 in test [1] is 6.70; in test [2], 5.02.

Consider `COc1cc(-c2n[nH]c(C(CCCCCl)c3ccccc3C(F)(F)F)n2)ccc1-n1cnc(C)c1` (stereo not drawn) [Compound 70], for which the results for the negative logarithm of the IC50 (pIC50) in test [1] and in test [2] were 6.51 and under 5.00, respectively.

For `COc1cc(-c2nc(N3CCOCC3)n(-c3ccc(F)cc3)n2)ccc1-n1cnc(C)c1` [Compound 71], the pIC50 was 5.94 in test [1] (Homo sapiens) and under 5.00 in test [2] (Homo sapiens).

As to `COc1cc(-c2nc(-c3cc(C(F)(F)F)ccc3C)n(C)n2)ccc1-n1cnc(C)c1` [Compound 72], the pIC50 was 6.54 in test [1] and under 5.00 in test [2].

With `COc1cc(-c2nc(-c3cc(C(F)(F)F)ccc3C)n(C(C)C)n2)ccc1-n1cnc(C)c1` [Compound 73], the negative-log IC50 (pIC50) was 6.70 in test [1] and 5.02 in test [2].

For `COc1cc(-c2nc(N3CCC(c4ccccc4)CC3)n(C)n2)ccc1-n1cnc(C)c1` [Compound 77], the pIC50 in test [1] was 6.84; in test [2], 5.08.

Take `COc1cc(-c2nc(N3CCCC(c4ccccc4)C3)n(C(C)C)n2)ccc1-n1cnc(C)c1` (stereo not drawn) [Compound 79]: the negative logarithm of the IC50 (pIC50) is 7.44 in test [1] (Homo sapiens) and 5.18 in test [2] (Homo sapiens).

Take `COc1cc(-c2nc(N3CCc4ccccc4C3)n(C)n2)ccc1-n1cnc(C)c1` [Compound 81]: the pIC50 in test [1] is 6.65; in test [2] it was under 5.00.

Consider `COc1cc(-c2nc(N3CCc4ccccc4C3)n(C(C)C)n2)ccc1-n1cnc(C)c1` [Compound 82], for which the pIC50 in test [1] is 6.22; in test [2] it was 5.11.

With `COc1cc(-c2nc(-c3ccc(F)cc3)n(C(C)C)n2)ccc1-n1cnc(C)c1` [Compound 83], the pIC50 in test [1] is 6.59; in test [2] it was under 5.00.

Take `COc1cc(-c2nc(-c3ccccc3Cl)n(CC3CC3)n2)ccc1-n1cnc(C)c1` [Compound 85]: the pIC50 in test [1] is 6.51; in test [2], under 5.00.

For `COc1cc(-c2nc(-c3ccccc3Cl)n(CC(F)(F)F)n2)ccc1-n1cnc(C)c1` [Compound 86], the pIC50 is 6.71 in test [1] and under 5.00 in test [2].

Turning to `COCCn1nc(-c2ccc(-n3cnc(C)c3)c(OC)c2)nc1-c1ccccc1Cl` [Compound 87], the pIC50 in test [1] is 6.12; in test [2], under 5.00.

Turning to `COc1cc(-c2nc(-c3cc(Cl)ccc3C)n(C)n2)ccc1-n1cnc(C)c1` [Compound 88], the pIC50 in test [1] is 6.68; in test [2] it was under 5.00.

In the case of `COc1cc(-c2nc(C(C)(O)c3cccc(C(F)(F)F)c3)n(C(C)C)n2)ccc1-n1cnc(C)c1` (stereo not drawn) [Compound 89], the pIC50 in test [1] (Homo sapiens) is 6.30; in test [2] (Homo sapiens), 5.10.

As to `COc1cc(-c2nc(C3(c4cc(C(F)(F)F)ccc4F)CC3)n(C)n2)ccc1-n1cnc(C)c1` [Compound 90], the values for the pIC50 in test [1] and in test [2] were 6.25 and 5.05, respectively.

As to `COc1cc(-c2nc(C(=O)c3cccc(C(F)(F)F)c3)n(C(C)C)n2)ccc1-n1cnc(C)c1` [Compound 91], the pIC50 in test [1] (Homo sapiens) was 5.63; in test [2] (Homo sapiens), under 5.00.

For the molecule `CNc1nc(-c2ccc(-n3cnc(C)c3)c(OC)n2)nn1-c1cccc(C(F)(F)F)c1` [Compound 92], the pIC50 in test [1] was 6.03; in test [2], under 5.00.

As for `CNc1nc(-c2ccc(-n3cnc(C)c3)c(OC)c2)nn1-c1cccc(C(F)(F)F)c1` [Compound 93], the pIC50 in test [1] (Homo sapiens) was 6.55; in test [2] (Homo sapiens), under 5.00.

`COc1cc(-c2nc(NC3CCCCC3)n(C)n2)ccc1-n1cnc(C)c1` [Compound 94]: the pIC50 was 6.06 in test [1] and under 5.00 in test [2].

As for `COc1cc(-c2nc(NC3CCCC(C(F)(F)F)C3)n(C)n2)ccc1-n1cnc(C)c1` (stereo not drawn) [Compound 95], the values for the pIC50 in test [1] and in test [2] were 6.04 and under 5.00, respectively.

On to `COc1cc(-c2nc(NC3CCCC(C(F)(F)F)C3)n(C)n2)ccc1-n1cnc(C)c1` (stereo not drawn) [Compound 96], for which the results for the negative-log IC50 (pIC50) in test [1] and in test [2] were 6.47 and under 5.00, respectively.

With `Cc1cn(-c2ccc(-c3nc(Nc4ccccc4C)n(C)n3)cc2OC(F)(F)F)cn1` [Compound 98], the pIC50 is 6.54 in test [1] and under 5.00 in test [2].

As for `COc1cc(-c2nc(Nc3ccccc3Cl)n(C)n2)ccc1-n1cnc(C)c1` [Compound 101], the results for the pIC50 in test [1] and in test [2] were 7.39 and under 5.00, respectively.

Regarding `COc1cc(-c2nc(Nc3ccccc3Br)n(C)n2)ccc1-n1cnc(C)c1` [Compound 102], the pIC50 in test [1] is 7.25; in test [2] it was under 5.00.

In the case of `COc1cc(-c2nc(Nc3cccc(Cl)c3)n(C)n2)ccc1-n1cnc(C)c1` [Compound 103], the pIC50 in test [1] is 7.44; in test [2] it was 5.20.

Consider `COc1cc(-c2nc(Nc3cccc(F)c3)n(C)n2)ccc1-n1cnc(C)c1` [Compound 104], for which the results for the negative-log IC50 (pIC50) in test [1] and in test [2] were 6.94 and 5.08, respectively.

`COc1cc(-c2nc(Nc3ccc(F)cc3)n(C)n2)ccc1-n1cnc(C)c1` [Compound 106]: the negative logarithm of the IC50 (pIC50) is 6.88 in test [1] and under 5.00 in test [2].

As to `COc1nc(-c2nc(Nc3ccccc3F)n(C)n2)ccc1-n1cnc(C)c1` [Compound 107], the results for the pIC50 in test [1] and in test [2] were 6.83 and under 5.00, respectively.

For `COc1cc(-c2nc(Nc3ccc(Cl)cc3)n(C)n2)ccc1-n1cnc(C)c1` [Compound 108], the pIC50 in test [1] is 6.82; in test [2] it was 5.11.

As to `COc1cc(-c2nc(Nc3ccc(F)cc3Cl)n(C)n2)ccc1-n1cnc(C)c1` [Compound 109], the pIC50 in test [1] was 6.93; in test [2] it was under 5.00.

Turning to `COc1cc(-c2nc(Nc3cc(F)ccc3F)n(C)n2)ccc1-n1cnc(C)c1` [Compound 110], the pIC50 in test [1] is 7.04; in test [2], under 5.00.
